Earlier results, collected in patent US20080095865A1, “COMPOSITION AND METHOD FOR INCREASING LEAN MUSCLE MASS, DECREASING MUSCLE LOSS, INCREASING MUSCLE STRENGTH AND IMPROVING ATHLETIC PERFORMANCE” (APLODAN FORMULATIONS LTD., priority 2004, published 2008).

Assays:
[1] = supplemented rats
[2] = hamster, in vivo
[3] = elderly subjects, compared to controls
[4] = patients with inadequate coronary blood flow
[5] = as a supplement
[6] = unaffected in placebo group

In the case of `O=C(O)CCCC[C@@H]1CCSS1` (stereo in doubt) [Alpha Lipoic Acid, 1,2-dithiolane-3-pentanoic acid], the “age-related changes in mitochondrial function, accumulated oxidative damage and metabolic rate” value [1] is given as “improved”, the “increase of metabolic clearance rate of glucose” value (diabetics) is given as 50% and the “body's utilization of blood sugar” value (type II diabetics) is given as “significantly increase”. For the same compound, the high-density lipoproteins [2] was “beneficial increase in high-density lipoproteins”.
For `CN(CCOP(=O)(O)O)C(=N)N` [Creatinol O-Phosphate], the muscular performance [3] is given as “improved muscular performance as compared to controls”, the cardiac parameters [4] is given as “successfully used to improve cardiac parameters” and the “tolerance and side effects” value [5] is given as “well tolerated and without side effects”. For the same compound, the hand-grip strength [6] was “improved”.
